Measurements reported in patent US20180036289A1 (Gilead Sciences, Inc., priority 2016, published 2018).

Tested on: cell lines tested
Test: Cell proliferation assay, summary across all cell lines and drugs
Assay type: cell-based
Settings: compared to primary drug alone
Experimental: All cell lines were obtained from the American Type Culture Collection (ATCC) Manassas, Va. (US). Master and working cell banks (MCB and WCB) were prepared by subculturing in ATCC-recommended media and freezing protocols (www.atcc.org). Cell line stocks for the assays were prepared from the WCB. The MCB, WCBs and assay stocks were prepared within respectively 3, 6 and 9 passages of the ATCC vial.
Solid powders of reference compounds were weighed on a calibrated balance and dissolved in 100% DMSO. DMSO samples were stored at room temperature. At the day of the experiment, the compound stock was diluted in 3.16 fold steps in 100% DMSO to obtain a 9-point dilution series. This was further diluted 31.6 times in 20 mM sterile Hepes buffer pH 7.4. A volume of 5 μl was transferred to the cells to generate a test concentration range from 3.16×10^−5M to 3.16×10^−9 M in duplicate. The final DMSO concentration during incubation was […] in all wells.
An assay stock was thawed and diluted in its ATCC recommended medium and dispensed in a 384-well plate, depending on the cell line used, at a concentration of 200-3200 cells per well in 45 μl medium. For each used cell line the optimal cell density is used. The margins of the plate were filled with phosphate-buffered saline. Plated cells were incubated in a humidified atmosphere of 5% CO2 at 37° C. After 24 hours, 5 μl of compound dilution was added and plates were further incubated for another 120 hours. After 120 hours, 25 μl of ATPlite 1Step™ (PerkinElmer) solution was added to each well, and subsequently shaken for 2 minutes. After 10 minutes of incubation in the dark, the luminescence was recorded on an Envision multimode reader (PerkinElmer).
IC50s were calculated by non-linear regression using IDBS XLfit 5. The percentage growth after 120 h (%-growth) was calculated as follows: 100%×(luminescencet=120h/luminescenceuntreated,t=120h). This was fitted to the ^10log compound concentration (conc) by a 4-parameter logistics curve: %−growth=bottom+(top−bottom)/(1+10^(log IC50-conc)*hill)), where hill is the Hill-coefficient, and bottom and top the asymptotic minimum and maximum cell growth that the compound allows in that assay.

## CC(C)c1nc(CN(C)C(=O)N[C@@H](CCN2CCOCC2)C(=O)N[C@H](CC[C@H](Cc2ccccc2)NC(=O)OCc2cncs2)Cc2ccccc2)cs1 [cobicistat]
Maximum across all experiments
  increase in sensitivity to the primary drug, maximum: 8.7 fold
On average, across all experiments
  increase in sensitivity to the primary drug, average: 2.9 fold
